Laboratory results taken from patent US10098938B2, “Peptides and combination of peptides for use in immunotherapy against various cancers” (immatics biotechnologies GmbH, priority 2015, dated 2018).

tested on: CD8+ T cells; test: In vitro immunogenicity: T-cell priming with aAPCs loaded with peptide/MHC and anti-CD28, pMHC multimer readout; format: cell-based, human; conditions: in vitro immunogenicity of HLA class I peptides; CD8+ T cells of healthy donors, three stimulation cycles, multimer staining
Excerpt: In order to obtain information regarding the immunogenicity of the TUMAPs of the present invention, the inventors performed investigations using an in vitro T-cell priming assay based on repeated stimulations of CD8+ T cells with artificial antigen presenting cells (aAPCs) loaded with peptide/MHC complexes and anti-CD28 antibody.
In order to perform in vitro stimulations by artificial antigen presenting cells loaded with peptide-MHC complex (pMHC) and anti-CD28 antibody, the inventors first isolated CD8+ T cells from fresh HLA-A*02 leukapheresis products via positive selection using CD8 microbeads (Miltenyi Biotec, Bergisch-Gladbach, Germany) of healthy donors obtained from the University clinics Mannheim, Germany, after informed consent.
PBMCs and isolated CD8+ lymphocytes were incubated in T-cell medium (TCM) until use consisting of RPMI-Glutamax (Invitrogen, Karlsruhe, Germany) supplemented with 10% heat inactivated human AB serum (PAN-Biotech, Aidenbach, Germany), 100 U/ml Penicillin/100 μg/ml Streptomycin (Cambrex, Cologne, Germany), 1 mM sodium pyruvate (CC Pro, Oberdorla, Germany), 20 μg/ml Gentamycin (Cambrex). 2.5 ng/ml IL7 (PromoCell, Heidelberg, Germany) and 10 U/ml IL-2 (Novartis Pharma, Nürnberg, Germany) were also added to the TCM at this step.
Generation of pMHC/anti-CD28 coated beads, T-cell stimulations and readout was performed in a highly defined in vitro system using four different pMHC molecules per stimulation condition and 8 different pMHC molecules per readout condition.
The purified co-stimulatory mouse IgG2a anti human CD28 Ab 9.3 (Jung et al., 1987) was chemically biotinylated using Sulfo-N-hydroxysuccinimidobiotin as recommended by the manufacturer (Perbio, Bonn, Germany). Beads used were 5.6 μm diameter streptavidin coated polystyrene particles (Bangs Laboratories, Illinois, USA).
pMHC used for positive and negative control stimulations were A*0201/MLA-001 (peptide […] (SEQ ID NO. 303) from modified Melan-A/MART-1) and A*0201/DDX5-001 ([…] from DDX5, SEQ ID NO. 304), respectively.
800.000 beads/200 μl were coated in 96-well plates in the presence of 4×12.5 ng different biotin-pMHC, washed and 600 ng biotin anti-CD28 were added subsequently in a volume of 200 μl. Stimulations were initiated in 96-well plates by co-incubating […] CD8+ T cells with 2×10^5 washed coated beads in 200 μl TCM supplemented with 5 ng/ml IL-12 (PromoCell) for 3 days at 37° C. Half of the medium was then exchanged by fresh TCM supplemented with 80 U/ml IL-2 and incubating was continued for 4 days at 37° C. This stimulation cycle was performed for a total of three times. For the pMHC multimer readout using 8 different pMHC molecules per condition, a two-dimensional combinatorial coding approach was used as previously described (Andersen et al., 2012) with minor modifications encompassing coupling to 5 different fluorochromes. Finally, multimeric analyses were performed by staining the cells with Live/dead near IR dye (Invitrogen, Karlsruhe, Germany), CD8-FITC antibody clone SK1 (BD, Heidelberg, Germany) and fluorescent pMHC multimers. For analysis, a BD LSRII SORP cytometer equipped with appropriate lasers and filters was used. Peptide specific cells were calculated as percentage of total CD8+ cells. Evaluation of multimeric analysis was done using the FlowJo software (Tree Star, Oregon, USA). In vitro priming of specific multimer+ CD8+ lymphocytes was detected by comparing to negative control stimulations.

Row | Substance | Wells
1 | 291 (KLDETGNSL; listed as Homo sapiens) [compound 291] | + (<20% = +)

same assay, conditions: in vitro immunogenicity of HLA class I peptides; pMHC multimer readout after T-cell priming

Row | Substance | Wells positive [%]
2 | 5 (GIVAHIQEV; listed as Homo sapiens) [compound 5] | + (<20% = +)
3 | 18 (ILLDLTDNRL; listed as Homo sapiens) [compound 18] | + (<20% = +)
4 | 23 (SLFSDEFKV; listed as Homo sapiens) [compound 23] | ++++ (> = 70% = ++++)
5 | 26 (ALQEELTEL; listed as Homo sapiens) [compound 26] | + (<20% = +)
6 | 29 (YLLDPSITL; listed as Homo sapiens) [compound 29] | + (<20% = +)
7 | 31 (TITETTVEV; listed as Homo sapiens) [compound 31] | + (<20% = +)
8 | 35 (FLLPFSTVYL; listed as Homo sapiens) [compound 35] | + (<20% = +)
9 | 90 (FLQDLEQRL; listed as Homo sapiens) [compound 90] | + (<20% = +)
10 | 141 (FLDKVLVAA; listed as Homo sapiens) [compound 141] | + (<20% = +)
11 | 149 (ILNTHITEL; listed as Homo sapiens) [compound 149] | + (<20% = +)
12 | 196 (LYIDRPLPYL; listed as Homo sapiens) [compound 196] | ++++ (> = 70% = ++++)
13 | 197 (EYSLFPGQVVI; listed as Homo sapiens) [compound 197] | + (<20% = +)
14 | 207 (AYVVFVSTL; listed as Homo sapiens) [compound 207] | + (<20% = +)
15 | 218 (YYKSTSSAF; listed as Homo sapiens) [compound 218] | + (<20% = +)
16 | 230 (KLQNIMMLL; listed as Homo sapiens) [compound 230] | ++++ (> = 70% = ++++)
17 | 268 (QYLGQIQHI; listed as Homo sapiens) [compound 268] | + (<20% = +)
18 | 269 (YFIDSTNLKTHF; listed as Homo sapiens) [compound 269] | + (<20% = +)
19 | 285 (HYPPVQVLF; listed as Homo sapiens) [compound 285] | + (<20% = +)

tested on: HLA-A*24; test: MHC binding assay, UV-ligand exchange with β2m ELISA, HLA-A*24; parameters: species or system human; conditions: binding to HLA-A*24 ranged by peptide exchange yield
Excerpt: Candidate peptides for T cell based therapies according to the present invention were further tested for their MHC binding capacity (affinity). The individual peptide-MHC complexes were produced by UV-ligand exchange, where a UV-sensitive peptide is cleaved upon UV-irradiation, and exchanged with the peptide of interest as analyzed. Only peptide candidates that can effectively bind and stabilize the peptide-receptive MHC molecules prevent dissociation of the MHC complexes. To determine the yield of the exchange reaction, an ELISA was performed based on the detection of the light chain (β2m) of stabilized MHC complexes. The assay was performed as generally described in Rodenko et al. (Rodenko et al., 2006).
96 well MAXISorp plates (NUNC) were coated over night with 2 ug/ml streptavidin in PBS at room temperature, washed 4× and blocked for 1 h at 37° C. in 2% BSA containing blocking buffer. Refolded HLA-A*02:01/MLA-001 monomers served as standards, covering the range of 15-500 ng/ml. Peptide-MHC monomers of the UV-exchange reaction were diluted 100 fold in blocking buffer. Samples were incubated for 1 h at 37° C., washed four times, incubated with 2 ug/ml HRP conjugated anti-β2m for 1 h at 37° C., washed again and detected with TMB solution that is stopped with […]. Absorption was measured at 450 nm. Candidate peptides that show a high exchange yield (preferably higher than 50%, most preferred higher than 75%) are generally preferred for a generation and production of antibodies or fragments thereof, and/or T cell receptors or fragments thereof, as they show sufficient avidity to the MHC molecules and prevent dissociation of the MHC complexes.

Row | Substance | Peptide exchange
20 | 160 (VYTLDIPVL; listed as Homo sapiens) [compound 160] | ++++ (> = 75% = ++++)
21 | 161 (IYLVSIPEL; listed as Homo sapiens) [compound 161] | ++++ (> = 75% = ++++)
22 | 166 (YYVESGKLF; listed as Homo sapiens) [compound 166] | ++++ (> = 75% = ++++)
23 | 168 (KYQDILETI; listed as Homo sapiens) [compound 168] | ++++ (> = 75% = ++++)
24 | 172 (TYTTVPRVAF; listed as Homo sapiens) [compound 172] | ++++ (> = 75% = ++++)
25 | 173 (IYSWILDHF; listed as Homo sapiens) [compound 173] | ++++ (> = 75% = ++++)
26 | 175 (YYEVHKELF; listed as Homo sapiens) [compound 175] | ++++ (> = 75% = ++++)
27 | 177 (VYPWLGALL; listed as Homo sapiens) [compound 177] | ++++ (> = 75% = ++++)
28 | 179 (MYDSYWRQF; listed as Homo sapiens) [compound 179] | ++++ (> = 75% = ++++)
29 | 181 (LYLDIINLF; listed as Homo sapiens) [compound 181] | ++++ (> = 75% = ++++)
30 | 184 (VFQNFPLLF; listed as Homo sapiens) [compound 184] | ++++ (> = 75% = ++++)
31 | 186 (IFPQFLYQF; listed as Homo sapiens) [compound 186] | ++++ (> = 75% = ++++)
32 | 187 (TYLRDQHFL; listed as Homo sapiens) [compound 187] | ++++ (> = 75% = ++++)
33 | 192 (SYALLTYMI; listed as Homo sapiens) [compound 192] | ++++ (> = 75% = ++++)
34 | 193 (RFHPTPLLL; listed as Homo sapiens) [compound 193] | ++++ (> = 75% = ++++)
35 | 194 (EFGSLHLEFL; listed as Homo sapiens) [compound 194] | + (<20% = +)
36 | 195 (TYSVSFPMF; listed as Homo sapiens) [compound 195] | ++++ (> = 75% = ++++)

Row | Substance | Peptide exchange
37 | 202 (VYWDSAGAAHF; listed as Homo sapiens) [compound 202] | ++++ (> = 75% = ++++)
38 | 210 (IYTMIYRNL; listed as Homo sapiens) [compound 210] | ++++ (> = 75% = ++++)
39 | 211 (YYLEVGKTLI; listed as Homo sapiens) [compound 211] | ++++ (> = 75% = ++++)
40 | 216 (QYSSVFKSL; listed as Homo sapiens) [compound 216] | ++++ (> = 75% = ++++)
41 | 217 (FFPPTRQMGLLF; listed as Homo sapiens) [compound 217] | ++++ (> = 75% = ++++)
42 | 227 (IFLDYEAGTLSF; listed as Homo sapiens) [compound 227] | ++++ (> = 75% = ++++)
43 | 228 (KYTSWYVAL; listed as Homo sapiens) [compound 228] | ++++ (> = 75% = ++++)
44 | 267 (KYMVYPQTF; listed as Homo sapiens) [compound 267] | ++++ (> = 75% = ++++)
45 | 271 (LYHDIFSRL; listed as Homo sapiens) [compound 271] | ++++ (> = 75% = ++++)
46 | 272 (QYLQDAYSF; listed as Homo sapiens) [compound 272] | ++++ (> = 75% = ++++)
47 | 274 (AYLHSHALI; listed as Homo sapiens) [compound 274] | ++++ (> = 75% = ++++)
48 | 276 (VYGFQWRHF; listed as Homo sapiens) [compound 276] | ++++ (> = 75% = ++++)
49 | 277 (VYQGHTALL; listed as Homo sapiens) [compound 277] | ++++ (> = 75% = ++++)
50 | 278 (RYISDQLFTNF; listed as Homo sapiens) [compound 278] | ++++ (> = 75% = ++++)
51 | 280 (RYPDNLKHLYL; listed as Homo sapiens) [compound 280] | ++++ (> = 75% = ++++)
52 | 282 (KFVDSTFYL; listed as Homo sapiens) [compound 282] | ++++ (> = 75% = ++++)
53 | 289 (KYPVEWAKF; listed as Homo sapiens) [compound 289] | ++++ (> = 75% = ++++)
